Reference: PubChem BioAssay AID1845206 (Molecular Pharmacology Branch, DTP, NCI, 2023)
Several values for one entry are separate records, joined by “and”; a condition that tells them apart may be missing. Equal values may be shown once. Activity calls are given as the source filed them. How the source made its calls: active means viability on the fitted dose curve at most 10% of control; inactive means the rest.

System: NCI-H1618 multicellular tumor spheroid viability
Experiment: Anticancer human tumor NCI-H1618 cell line growth inhibition;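 further: spheroids exposed to agents for 7 days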
Conditions: for viability, T/C: stronger effect = lower value
Source text: Multicellular complex tumor spheroid response to DNA repair inhibitors in combination with DNA-damaging drugs
This study explores the anticancer activities of DNA-damaging drugs and inhibitors of DNA damage repair, both as single agents and in combinations. Complex tumor spheroids comprised of malignant cells, endothelial cells and mesenchymal stem cells served as an in vitro model for human solid tumors. This model system incorporates physiologically relevant features and patient-derived or established malignant cell lines with clinically relevant genetic alterations from many tumor types. Twenty-six patient-derived or established malignant cell lines were evaluated representing sarcoma, melanoma, small cell lung cancer (SCLC), non-small cell lung cancer (NSCLC), as well as bladder, ovarian and pancreatic cancers. The concentration ranges selected for each drug and investigational agent were based upon clinically achievable concentrations if the clinical Cmax of the agent was known.
Compounds. The drugs and compounds olaparib (NSC753686), talazoparib (NSC767125), berzosertib (NSC777718), elimusertib (NSC800525), nedisertib (NSC802822), VX-984 (NSC792969), AZD-1390 (NSC803789), temozolomide (NSC362856), topotecan (NSC609699), trabectedin (NSC813783), staurosporine (NSC755774), and gemcitabine (NSC613327) were obtained from the National Cancer Institute (NCI) Developmental Therapeutics Program Chemical Repository. The FDA-approved anticancer drug set is available from the Developmental Therapeutics Program at https://dtp.cancer.gov/organization/dscb/obtaining/available_plates.htm. […] The stock solutions were prepared in dimethyl sulfoxide (DMSO, Sigma-Aldrich, St. Louis, MO, cat. D2650) at 400-fold the tested concentration and stored at -70 degrees C. Prior to their use, the stock solutions were diluted in fresh medium and the final DMSO concentration in the assay was 0.25% (v/v). All drugs and investigational agents were tested over a range starting from a high concentration at or near the clinical Cmax and decreasing in half-log increments. If the clinical Cmax for an agent had not been determined, the highest concentration tested was 10 microM.
Cell Lines. The patient-derived cancer cell (PDC) lines: 156681-154-R-J1-PDC, 283228-195-R-J1-PDC, 287954-098-R-J1-PDC, 292921-168-R-J2-PDC, 349418-098-R-PDC, 425362-245-T-J1-PDC, 556581-035-R-J1-PDC, and BL0293-F563-PDC were received from the NCI Patient-Derived Models Repository (PDMR, https://pdmr.cancer.gov). The established cell lines HS-SY-2 (RRID:CVCL_8719), MPNST, and SYO-1 (RRID:CVCL_7146) were obtained from the Sloan Kettering Institute. The alveolar soft parts sarcoma cell line ASPS-1 (RRID:CVCL_S738) was established at the NCI and grown from internal seed stocks. The following established cell lines were purchased from the American Type Culture Collection (ATCC, Manassas, VA): G-401 (ATCC, cat. CRL-1441, RRID:CVCL_0270), SW982 (ATCC, cat. HTB-93, RRID:CVCL_1734), VA-ES-BJ (ATCC, cat. CRL-2138, RRID:CVCL_1785), NCI-H719 (ATCC, cat. CRL-5837, RRID:CVCL_1582), NCI-H196 (ATCC, cat. CRL-5823, RRID:CVCL_1509), NCI-H841 (ATCC, cat. CRL-5845, RRID:CVCL_1595), NCI-H1618 (ATCC, cat. CRL-5879, RRID:CVCL_1480), NCI-H1876 (ATCC, cat. CRL-5902, RRID:CVCL_1503), DMS 114 (ATCC, cat. CRL-2066; RRID:CVCL_1174), NCI-H211 (ATCC, cat. CRL-5824; RRID:CVCL_1529), and SW 1271 (ATCC, cat. CRL-2177, RRID:CVCL_1716). The small cell lung cancer cell line COR-L88 was purchased from Sigma-Aldrich (cat. 92031917-1VL, RRID:CVCL_1141). The non-small cell lung cancer cell lines NCI-H226 (RRID:CVCL_1544) and NCI-H322M (RRID:CVCL_1557) were established at the NCI and grown from internal seed stocks. Pooled donor human umbilical vein endothelial cells (HUVEC, Lonza, cat. CC-2519) and human mesenchymal stem cells (hMSC, Lonza, cat. PT-2501) were purchased from Lonza (Walkersville, MD).
Cell Culture. All cells were maintained in an incubator at 37 degrees C and 5% CO2 with 95% humidity. […]

| SMILES | viability, T/C (compound 0.0316 µM) | viability, T/C (compound 0.1 µM) | viability, T/C (compound 0.316 µM) | viability, T/C (compound 1 µM) | viability, T/C (compound 3.16 µM) | viability, T/C (compound 10 µM) | IC50 (curve of compound) | viability, T/C (compound 0.3 µM) | viability, T/C (compound 0.0949 µM) | viability, T/C (compound 0.949 µM) | viability, T/C (compound 3 µM) | also measured |
| --- | --- | --- | --- | --- | --- | --- | --- | --- | --- | --- | --- | --- |
| CC(C)n1c(=O)n(C)c2cnc3cc(F)c(-c4ccc(OCCCN5CCCCC5)nc4)cc3c21 | 92.6% and 97.3% and 82.8% | 93.1% and 105% | 85.2% and 96.6% and 100% | 80.8% and 86.8% | 75.5% and 87.7% and 75.1% | 58.1% and 89.4% and 54.3% | > 10 µM | – | – | – | – | outcome (compound 0.1 µM): inactive; outcome (compound 1 µM): inactive |
| CC1COCCN1c1cc(-c2ccnn2C)c2ccnc(-c3ccn[nH]3)c2n1 (stereo not given) | 66.6% and 84.9% and 71.4% | 36.7% and 35.1% and 32.9% | 5.46% and 8.95% and 25.5% | 1.99% and 2.55% and 7.57% | 1.12% and 1.22% and 2.57% | 2.74% and 1.68% and 1.22% | 0.06 µM and 0.0709 µM and 0.0643 µM | – | – | – | – | – |
| CC[C@@]1(O)C(=O)OCc2c1cc1n(c2=O)Cc2cc3c(CN(C)C)c(O)ccc3nc2-1 | – | – | – | – | – | – | – | 1.94% [middle of 9 runs] | – | – | – | IC50 (compound alone, run of 11/07/2019): 9.37 nM [middle of 5 runs] |
| CNCc1ccc(-c2cc(-c3nc(-c4ccc(S(=O)(=O)C(C)C)cc4)cnc3N)on2)cc1 | – | – | – | – | – | – | 0.0638 µM and 0.567 µM and 0.54 µM | 25.8% and 85.3% and 90% | 25.7% and 95.3% and 102% | 18.8% and 21.5% and 11.7% | 20.3% and 0.47% and 4.41% | viability, T/C (compound 0.00949 µM): 97.2% and 99.1% and 104%; viability, T/C (compound 0.03 µM): 96.2% and 99.4% and 112% |
| COc1cc(C)[nH]c(=O)c1CN1CCc2c(Cl)cc(C(OC)C3COC3)c(Cl)c2C1=O (stereo not given) | 83.9% and 102% and 58.1% | 77.3% and 49.4% | 67.3% and 73.7% | 76.1% and 83% and 91.4% | 69% and 82.6% and 93.8% | 65.9% and 85.6% and 65.3% | > 10 µM | – | – | – | – | outcome (compound 0.1 µM): inactive; outcome (compound 0.316 µM): inactive |
| COc1cc2c(cc1O)CCNC21CSC2c3c(OC(C)=O)c(C)c4c(c3C(COC1=O)N1C(O)C3Cc5cc(C)c(OC)c(O)c5C(C21)N3C)OCO4 (stereo not given) | – | – | – | – | – | – | – | – | – | – | – | viability, T/C (compound 30 pM): 95.9% [middle of 10 runs]; viability, T/C (compound 0.0003 µM): 5.95% [middle of 10 runs]; viability, T/C (compound 0.000949 µM): 3.52% [middle of 10 runs]; viability, T/C (compound 0.003 µM): 2.99% [middle of 10 runs]; IC50 (compound alone, run of 12/16/2019): 0.124 nM [middle of 9 runs] |
| COc1ccc([C@@H](O)c2cc(-c3ncnc4cc(N5CCOCC5)ccc34)c(F)cc2Cl)nn1 | 84% and 103% and 101% | 109% and 97.9% and 84.5% | 108% and 103% and 83.4% | 98.4% and 98.8% and 76% | 84.1% and 83% and 83.7% | 22.8% and 78.7% and 32.8% | 6 µM and > 10 µM and 6.75 µM | – | – | – | – | – |
| Cc1cc(C)c(CNC(=O)c2cc(-c3ccc(CN4CCOCC4)cc3)cc3c2cnn3C2CCCC2)c(=O)[nH]1 | 90.5% and 97.2% and 101% | 103% and 101% and 107% | 89.7% and 98.2% and 101% | 94.6% and 94.8% and 99% | 89% and 95.3% and 95.9% | 76.2% and 95.1% and 88.9% | > 10 µM | – | – | – | – | – |
| Cc1sc2c(c1C)C(c1ccc(Cl)cc1)=NC(CC(=O)Nc1ccc(O)cc1)c1nnc(C)n1-2 (stereo not given) | – | – | – | – | – | – | 2.16 µM and 2.06 µM and 0.567 µM | 102% and 95.7% and 56.4% | 100% | 91.1% and 80.5% and 47% | 33.8% and 35.4% and 16.8% | viability, T/C (compound 0.00949 µM): 109% (2×) and 110%; viability, T/C (compound 0.03 µM): 105% and 108% and 115%; outcome (compound 0.0949 µM): inactive |
| Cn1ncnc1[C@H]1c2n[nH]c(=O)c3cc(F)cc(c23)N[C@@H]1c1ccc(F)cc1 | – | – | – | – | – | – | – | 13.2% and 5.31% and 10.7% | 88.2% and 22.8% and 79.8% | 1.9% and 23.1% and 3.83% | 1.81% and 2.3% and 3.2% | viability, T/C (compound 0.00949 µM): 92.2% and 26.7% and 101%; viability, T/C (compound 0.03 µM): 91.8% and 23.5% and 84.8% |
| Cn1nnc2c(C(N)=O)ncn2c1=O | – | – | – | – | 19.8% [middle of 10 runs] | 5.8% [middle of 10 runs] | – | – | – | – | – | viability, T/C (compound 31.6 µM): 10.4% [middle of 10 runs] |
| O=C(c1cc(Cc2n[nH]c(=O)c3ccccc23)ccc1F)N1CCN(C(=O)C2CC2)CC1 | – | – | – | – | – | – | 1.82 µM and 10.9 µM and 6.89 µM | 103% and 90.6% | 98.1% and 105% and 94.9% | 83.7% and 96.2% and 98.8% | 23.2% and 98.6% and 91% | outcome (compound 0.3 µM): inactive; viability, T/C (compound 9.49 µM): 23.5% and 56.3% and 34.1%; viability, T/C (compound 30 µM): 25% and 3.78% and 9.4% |
| [2H]c1nc(C)nc([2H])c1-c1cc(NC[C@@H](C)c2cccc3c(C(=O)NC)ccnc23)ncn1 | 97% and 100% and 12.9% | 98.5% and 98% and 8.24% | 101% and 117% | 96.4% and 101% and 142% | 88.6% and 94% and 106% | 97.2% and 102% and 91.8% | – | – | – | – | – | outcome (compound 0.316 µM): inactive |
